{"source": "paper PMC9060465", "about": "(Proceedings of the National Academy of Sciences of the …, 2022)", "key": {"human GIPR": {"target": "T1, human GIPR (Homo sapiens, UniProt P48546)", "T1 construct": "expressed in transfected cells; host or cells: HEK293", "T1 sequence (P48546 22-466)": "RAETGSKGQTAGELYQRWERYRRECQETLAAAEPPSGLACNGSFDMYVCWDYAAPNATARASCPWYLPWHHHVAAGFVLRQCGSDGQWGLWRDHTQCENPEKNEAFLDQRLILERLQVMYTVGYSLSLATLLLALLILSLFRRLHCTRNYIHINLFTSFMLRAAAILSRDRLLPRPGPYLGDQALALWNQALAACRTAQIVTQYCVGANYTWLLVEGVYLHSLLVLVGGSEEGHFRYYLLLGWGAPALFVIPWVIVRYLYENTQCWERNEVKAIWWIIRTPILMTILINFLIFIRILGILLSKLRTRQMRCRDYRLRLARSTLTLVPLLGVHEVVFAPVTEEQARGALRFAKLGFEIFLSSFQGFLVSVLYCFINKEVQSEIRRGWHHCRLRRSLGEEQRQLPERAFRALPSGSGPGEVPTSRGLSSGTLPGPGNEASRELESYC", "assay": "GIPR low density cAMP accumulation in HEK293 cells", "assay_type": "cell-based", "method": "Fig. 4. […] (B) Ligand-induced GTPγS binding of Gαs was performed using the GIPR-expressing membranes. […] (C) Agonist-stimulated cAMP production was measured in human GIPR expressing HEK293 cells. […] (E) Ligand-induced GTPγS binding of Gαs was performed using the GLP-1R-expressing membranes. […] (F) Agonist-stimulated cAMP production was measured in human GLP-1R-expressing HEK293 cells. […] Data presented are representative of n ≥ 3 independent experiments. Summarized data are shown in SI Appendix, Table 2. log M; log Molar.\nWe note that the albumin-binding propensity of fatty acid-modified peptides can confound a pharmacological comparison of molecules, given the common use of albumin and serum as nonspecific blocking agents in biological assays. Therefore, to obviate this, entirely albumin-free assays supplemented with bovine casein or bacitracin were used to prevent nonspecific binding ([10]).\nFunctional potency (EC50)\nand efficacy (% Top) of ligands to induce Gα s -GTPγS binding and cAMP accumulation in HEK293 cells expressing GIPR were determined. The equilibrium affinity (KD) of\nligands for the immobilized ectodomain of the GIPR were quantified by surface plasmon resonance. […]\nSPR data were analyzed using T200 evaluation software (Cytiva). All data are presented as geometric means with SEM and n values\naccording to established practices. ND, not determined. NA, not applicable."}, "[1]": {"target": "T2, ECD of human GIPR (amino acids 26 to 138) (Homo sapiens, UniProt P48546)", "T2 construct": "human GIPR (amino acids 26 to 138); 6His; made in house; host or cells: CHO cells", "T2 sequence (P48546 26-138)": "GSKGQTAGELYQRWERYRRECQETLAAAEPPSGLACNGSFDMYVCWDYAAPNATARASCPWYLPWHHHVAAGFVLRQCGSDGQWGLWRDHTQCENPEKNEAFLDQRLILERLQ", "assay": "GIPR extracellular domain binding by surface plasmon resonance", "settings": "equilibrium affinity, immobilized GIPR ectodomain, Biacore T200, HBS-EP pH 7.6; (SEM, n); read-out: GIPR SPR KD", "from_the_text": "DNA encoding each protein was transfected into CHO cells for expression. After expression, the proteins were purified by affinity chromatography (HIS-Trap Ni, Cytiva) followed by size exclusion chromatography using a HiLoad 26/600 Superdex 75pg column (Cytiva) with PBS buffer. […] Surface plasmon resonance measurements were made using a Biacore T200 (Cytiva) and analyzed using T200 Evaluation Software Version 3.1. Receptor ectodomain proteins were covalently immobilized (∼250 resonance units) on Sensor Chip CM4 BR100534 using the Amine coupling Immobilization Wizard in the Biacore T200 Control Software Version 2.0.2. […]\n(§1) and efficacy (% Top) of ligands to induce Gα s -GTPγS binding and cAMP accumulation in HEK293 cells expressing GIPR were determined. The equilibrium affinity (KD) of ligands for the immobilized ectodomain of the GIPR were quantified by surface plasmon resonance. […]\n(§2) Functional potency (EC50) and efficacy (% Top) of ligands to induce Gα s-GTPγS binding and cAMP accumulation in HEK293 cells expressing GLP-1R were determined. The equilibrium affinity (KD) of ligands for the immobilized ectodomain of the GLP-1R were quantified by surface plasmon resonance. […]\n(§3) recruitment to the GLP-1R were determined using the NanoBRET approach. The potency (EC50) and efficacy (% Top) for ligands to induce GLP-1R Internalization were determined using diffusion-enhanced resonance energy transfer. […]"}, "[2]": {"target": "T3, ECD of human GLP-1R (amino acids 24 to 145) (Homo sapiens, UniProt P43220)", "T3 construct": "GLP-1R (amino acids 24 to 145); 6His; made in house; host or cells: CHO cells", "T3 sequence (P43220 24-145)": "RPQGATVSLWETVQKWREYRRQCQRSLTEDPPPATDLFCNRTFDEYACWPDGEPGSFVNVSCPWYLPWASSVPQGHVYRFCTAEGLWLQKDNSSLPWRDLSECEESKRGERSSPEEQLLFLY", "assay": "GLP-1R extracellular domain binding by surface plasmon resonance", "from_the_text": "DNA encoding each protein was transfected into CHO cells for expression. After expression, the proteins were purified by affinity chromatography (HIS-Trap Ni, Cytiva) followed by size exclusion chromatography using a HiLoad 26/600 Superdex 75pg column (Cytiva) with PBS buffer. […] Surface plasmon resonance measurements were made using a Biacore T200 (Cytiva) and analyzed using T200 Evaluation Software Version 3.1. Receptor ectodomain proteins were covalently immobilized (∼250 resonance units) on Sensor Chip CM4 BR100534 using the Amine coupling Immobilization Wizard in the Biacore T200 Control Software Version 2.0.2. Running buffer was HBS-EP (10 mM Hepes, 150 mM NaCl, 3 mM EDTA, 0.05% P20 [pH 7.6]; Teknova). Concentration series for each sample were made by serial dilution in running buffer. The samples were injected for 150 sec at a 30-µL/min flow rate, followed by 300 sec of dissociation. The surface was regenerated between samples with 10 mM glycine (pH 1.7).\nFig. S10. Receptor extracellular domain (ECD) binding affinity of peptides. Purified GIPR (left column) and GLP-1R (right column) extracellular domains were immobilized to biosensor […]\nmM). […]\nas §1, §2, §3\nrelative efficacy for NanoBRET assays. SPR data were analyzed using T200 evaluation software (Cytiva). […] ND, not determined. […]"}, "GLP-1R [3]": {"target": "T4, GLP-1R (Homo sapiens, UniProt P43220)", "assay": "Ligand-induced GLP-1R internalization, SNAP-GLP-1R HEK293 cells", "assay_type": "cell-based"}, "GLP-1R [4]": {"target": "T4, GLP-1R", "assay": "β-arrestin 1 recruitment to the GLP-1R, NanoBRET", "assay_type": "cell-based", "parameters": "expressed in transfected cells", "method": "Functional potency (EC50) […]\nas §1, with “resonance. Middle Panel: The affinity (Ki) of ligands for the GLP-1R was” for “resonance.”\nas §2, §3\nrelative efficacy for NanoBRET assays. SPR data were analyzed using T200 evaluation software (Cytiva). All data are presented as geometric means with SEM and n values according to established practices. ND, not determined. NA, not applicable."}}}
{"compound": "CC[C@H](C)[C@H](NC(=O)[C@H](CC(C)C)NC(=O)[C@H](Cc1c[nH]c2ccccc12)NC(=O)[C@H](CCC(N)=O)NC(=O)[C@@H](NC(=O)[C@H](Cc1ccccc1)NC(=O)[C@H](C)NC(=O)[C@H](CCCCN)NC(=O)[C@H](CCC(N)=O)NC(=O)[C@H](C)NC(=O)[C@@H](NC(=O)[C@H](CCCCN)NC(=O)[C@H](CC(=O)O)NC(=O)[C@H](CC(C)C)NC(=O)C(C)(C)NC(=O)[C@@H](NC(=O)[C@H](CO)NC(=O)[C@H](Cc1ccc(O)cc1)NC(=O)[C@H](CC(=O)O)NC(=O)[C@H](CO)NC(=O)[C@@H](NC(=O)[C@H](Cc1ccccc1)NC(=O)[C@@H](NC(=O)CNC(=O)[C@H](CCC(=O)O)NC(=O)C(C)(C)NC(=O)[C@@H](N)Cc1ccc(O)cc1)[C@@H](C)O)[C@@H](C)O)[C@@H](C)CC)[C@@H](C)CC)C(C)C)C(=O)N[C@@H](C)C(=O)NCC(=O)NCC(=O)N1CCC[C@H]1C(=O)N[C@@H](CO)C(=O)N[C@@H](CO)C(=O)NCC(=O)N[C@@H](C)C(=O)N1CCC[C@H]1C(=O)N1CCC[C@H]1C(=O)N1CCC[C@H]1C(=O)N[C@@H](CO)C(N)=O", "note": "[Tzp∆C20]", "values": [{"measurement": "EC50", "setting": "human GIPR; cAMP accumulation, HEK293 cells expressing GIPR, albumin-free, geometric mean (SEM, n)", "result": 0.0163, "unit": "nM"}, {"measurement": "GIPR Low Density cAMP Top", "setting": "human GIPR; efficacy (% Top), normalized to GIP(1-42), (SEM)", "result": "107 (4) %"}, {"measurement": "Kd", "setting": "[1]", "result": 1690, "unit": "nM"}, {"measurement": "Kd", "setting": "[2]; GLP-1R SPR KD, equilibrium affinity, immobilized GLP-1R ectodomain, Biacore T200, HBS-EP pH 7.6, (SEM, n)", "result": 111, "unit": "nM"}, {"measurement": "koff", "setting": "[2]; read-out: GLP-1R ECD kinetic constant Koff", "result": 0.0254, "unit": "s⁻¹"}, {"measurement": "EC50", "setting": "GLP-1R [3]; diffusion-enhanced resonance energy transfer, SNAP-GLP-1R HEK293 cells, 37 °C, geometric mean (SEM, n)", "result": 5.47, "unit": "nM"}, {"measurement": "GLP-1R Internalization Top", "setting": "GLP-1R [3]; efficacy (% Top), percent internalization compared to maximal GLP-1, (SEM)", "result": "90.6 (3.0) %"}, {"measurement": "EC50", "setting": "GLP-1R [4]; NanoBRET, geometric mean (SEM, n), read-out: GLP-1R β-Arr1 Recruitment EC50", "result": 3.99, "unit": "nM"}, {"measurement": "GLP-1R β-Arr1 Recruitment Top", "setting": "GLP-1R [4]; efficacy (% Top), relative efficacy to GLP-1, (SEM)", "result": "25.9 (2.6) %"}]}
